Assay: Evaluation of luminescence properties (emission maximum, PL quantum yield, emission lifetime)
Type: physicochemical
Details: toluene solution 1.0×10^−5 mol/L, 340-nm excitation
Procedure: The following examples illustrate the present invention in greater detail. It is to be understood that changes may be made to the below-described materials, processing manner, processing procedure, etc. without departing from the scope of the present invention. Thus, the present invention should not be construed as limited to the following examples. An evaluation of luminescence properties was performed by using an optical spectroscope (PMA-12, manufactured by Hamamatsu Photonics K.K.), and an observation of the shape of particles was performed by using a scanning electron microscope (Inspect S, manufactured by FEI). The average diameter and the polydispersion index of luminescent particles were determined by cumulant analysis using a dynamic light scattering measurement device (DLS-8000DL, manufactured by Otsuka Electronics Co., Ltd.).
The example particles 1, the example particles 2 and the comparative particles 1 were separately dispersed in water to prepare three aqueous dispersions (0.05 μg/L). For each of the aqueous dispersions and a toluene solution of 4CzIPN (1.0×10^−5 mol/L), the emission maximum wavelength, the PL quantum yield (photoluminescence quantum yield) and the emission lifetime τ1, τ2 were measured using 340-nm excitation light.
The resulting luminescent particles contained particles having a maximum diameter of less than 1000 nm. The resulting luminescent particles were dispersed in water to prepare an aqueous dispersion (0.05 μg/L). The aqueous dispersion was subjected to measurement of the emission spectrum with 340-nm excitation light. […] The full width at half maximum (FWHM) was as narrow as 29 nm.

For N#Cc1c(-n2c3ccccc3c3ccccc32)c(C#N)c(-n2c3ccccc3c3ccccc32)c(-n2c3ccccc3c3ccccc32)c1-n1c2ccccc2c2ccccc21 [4CzIPN], which “Emission lifetime τ1” value (after nitrogen bubbling) is on record?
Its value is 16 ns.

And the “Emission lifetime τ2” value (after nitrogen bubbling)?
Its value is 4.71 μs.

And the Emission maximum wavelength (after nitrogen bubbling)?
Its Emission maximum wavelength is 505 nm.

And the “PL quantum Yield” value (after nitrogen bubbling)?
Its value is 83%.

And the “Emission lifetime τ1” value (before nitrogen bubbling)?
Its value is 11 ns.

And the “Emission lifetime τ2” value (before nitrogen bubbling)?
The value was 0.31 μs.

What about the Emission maximum wavelength (before nitrogen bubbling) of the same compound?
Its Emission maximum wavelength is 505 nm.

And the “PL quantum Yield” value (before nitrogen bubbling)?
Its value is 21%.
